19 compounds from patent US20210253562A1, “ACYLSUFONAMIDE COMPOUNDS USEFUL AS EP3 RECEPTOR ANTAGONISTS” (Janssen Pharmaceutica NV, priority 2018, published 2021) can be followed below.

The structures appear in SMILES notation.

The target in experiment [1] is T1, CHO cells over-expressing the EP3 receptor (Homo sapiens, UniProt P43115).
T1 construct: expressed in transfected cells; host or cells: CHO cells
T1 sequence (P43115 1-390): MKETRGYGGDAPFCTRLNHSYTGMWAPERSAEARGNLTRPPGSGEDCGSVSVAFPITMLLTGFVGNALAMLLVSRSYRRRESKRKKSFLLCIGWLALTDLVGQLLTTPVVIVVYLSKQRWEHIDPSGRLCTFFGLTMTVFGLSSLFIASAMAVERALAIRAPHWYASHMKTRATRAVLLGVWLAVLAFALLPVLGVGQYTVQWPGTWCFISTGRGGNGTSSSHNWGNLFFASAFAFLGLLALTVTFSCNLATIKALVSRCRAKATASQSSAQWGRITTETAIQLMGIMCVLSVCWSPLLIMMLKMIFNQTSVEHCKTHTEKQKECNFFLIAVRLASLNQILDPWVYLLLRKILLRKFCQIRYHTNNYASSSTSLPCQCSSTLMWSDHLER
The experiment can be described thus: CHO cell cAMP assay; EP3 cAMP antagonist dose response (sulprostone reference), HTRF. In kind it is cell-based. As to conditions: sulprostone 700 nM (EC80) and FSK 2 μM (EC70); read-out: CHO_cAMP IC50. In short, it runs like this:
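EP3-overexpressing CHO cells pre-incubated with test compound, then stimulated 30 min at 37 °C with FSK (2 μM, EC70) plus sulprostone (700 nM, EC80); antagonism seen as restored cAMP. cAMP measured by HTRF 665/615 ratio, converted via on-plate standard curve. IC50 from Hill fit of 11-point dosing.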
(cAMP levels reflect the balance of adenylyl cyclase and phosphodiesterase activity.)

Experiment [2] has as its target T2, EP3 membrane (EP3 receptor) (Homo sapiens, UniProt P43115).
T2 construct: purchased Millipore HTS092M
T2 sequence (P43115 1-390): T1 sequence (P43115 1-390)
The experiment can be described thus: [3H]-PGE2 binding; EP3 competition binding (SPA). In short, it runs like this: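 SPA competition at room temperature, 2 h: EP3 membranes 2 μg/well, 2 nM [3H]-PGE2, 0.1% DMSO, in Tris/MgCl2/EDTA buffer pH 7.4. Compounds in 1:3 serial dilution; scintillation read; Ki by one-site nonlinear fit.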

With `O=C(NS(=O)(=O)c1ccc(Cl)cc1)OC/C=C1\CCCc2cnn(Cc3ccc(Cl)cc3Cl)c21` [Compound #2, (E)-2-(1-(2,4-dichlorobenzyl)-1,4,5,6-tetrahydro-7H-indazol-7-ylidene)ethyl ((4-chlorophenyl)sulfonyl)carbamate], the IC50 (as a rule, the concentration needed to halve the response being measured) in experiment [1] was found to be 92 nM. Moreover, the Ki (as a rule, a dissociation constant, usually derived from enzyme kinetics or from competition with a known ligand) in experiment [2] stood at 11 nM.
As to `O=C(C/C=C1\CCCc2cnn(Cc3ccc(Cl)cc3Cl)c21)NS(=O)(=O)c1cc(Cl)c(Cl)s1` [Compound #3, (E)-3-(1-(2,4-dichlorobenzyl)-1,4,5,6-tetrahydro-7H-indazol-7-ylidene)-N-((4,5-dichlorothiophen-2-yl)sulfonyl)propanamide], the IC50 in experiment [1] came to 33 nM. Further, affinity in experiment [2] was put at a Ki of 3 nM.
For `O=C(NS(=O)(=O)c1ccc(Cl)cc1)OC/C=C1\c2c(cnn2Cc2ccc(Cl)cc2Cl)CCC1F` (centres unmarked) [Compound #51, (E)-2-(1-(2,4-dichlorobenzyl)-6-fluoro-1,4,5,6-tetrahydro-7H-indazol-7-ylidene)ethyl ((4-chlorophenyl)sulfonyl)carbamate], the IC50 in experiment [1] was determined as 15700 nM. In experiment [2], the inhibitory constant (Ki) was over 10000 nM.
On to `O=C(NC/C=C1\CCCc2cnn(Cc3ccc(Cl)cc3Cl)c21)NS(=O)(=O)c1ccc(Cl)s1` [Compound #11, (E)-5-chloro-N-((2-(1-(2,4-dichlorobenzyl)-1,4,5,6-tetrahydro-7H-indazol-7-ylidene)ethyl)carbamoyl)thiophene-2-sulfonamide], for which the IC50 in experiment [1] amounted to 2 nM. In experiment [2], this compound gave a Ki of 1 nM.
As to `O=C(NC/C=C1\CCCc2cnn(Cc3ccc(Cl)cc3Cl)c21)NS(=O)(=O)c1cnc2ccccc2c1` [Compound #12, (E)-N-((2-(1-(2,4-dichlorobenzyl)-1,4,5,6-tetrahydro-7H-indazol-7-ylidene)ethyl)carbamoyl)quinoline-3-sulfonamide], the IC50 in experiment [1] stood at 48 nM. Further, the affinity in experiment [2], expressed as Ki, was 19 nM.
For the compound `O=C(NS(=O)(=O)c1ccc(Cl)cc1)OC/C=C1\c2c(cnn2Cc2ccc(Cl)cc2Cl)CCC1(F)F` [Compound #81, (E)-2-(1-(2,4-dichlorobenzyl)-6,6-difluoro-1,4,5,6-tetrahydro-7H-indazol-7-ylidene)ethyl ((4-chlorophenyl)sulfonyl)carbamate], the concentration for half-maximal inhibition (IC50) in experiment [1] was 14100 nM. Moreover, in experiment [2], the inhibitory constant (Ki) is over 10000 nM.
Turning to `O=C(CC/C=C1\CCCc2cnn(Cc3ccc(Cl)cc3Cl)c21)NS(=O)(=O)c1cc2ccccc2s1` [Compound #31, (E)-N-(benzo[b]thiophen-2-ylsulfonyl)-4-(1-(2,4-dichlorobenzyl)-1,4,5,6-tetrahydro-7H-indazol-7-ylidene)butanamide], in experiment [1], the IC50 is 13 nM. This compound also came in with a Ki in experiment [2] of 7 nM.
Take `O=C(NC/C(F)=C1\CCc2cnn(Cc3ccc(Cl)cc3Cl)c21)NS(=O)(=O)c1cc(Cl)c(Cl)s1` [Compound #136, (Z)-4,5-dichloro-N-((2-(1-(2,4-dichlorobenzyl)-4,5-dihydro-cyclopenta[c]pyrazol-6(1H)-ylidene)-2-fluoroethyl)carbamoyl)thiophene-2-sulfonamide]: the 50% inhibitory concentration (IC50) in experiment [1] was found to be 46 nM. In experiment [2], this compound registered an inhibition constant (Ki) of 5 nM.
As for `Cn1cc(S(=O)(=O)NC(=O)NC/C=C2\CCCc3cnn(Cc4ccc(Cl)cc4Cl)c32)cn1` [Compound #152, (E)-N-((2-(1-(2,4-dichlorobenzyl)-1,4,5,6-tetrahydro-7H-indazol-7-idene)ethyl)carbamoyl)-1-methyl-1H-pyrazole-4-sulfonamide], in experiment [1], the half-inhibitory concentration (IC50) was 8 nM. This compound registered a Ki in experiment [2] of 9 nM.
The matching figures for `O=C(CC/C=C1\CCCc2cnn(-c3cccc(-c4ccccc4)c3)c21)NS(=O)(=O)c1cc(Cl)c(Cl)s1` [Compound #52, (E)-4-(1-([1,1′-biphenyl]-3-yl)-1,4,5,6-tetrahydro-7H-indazol-7-ylidene)-N-((4,5-dichlorothiophen-2-yl)sulfonyl)butanamide]: 3 nM and 1 nM.
Take `COc1cccc(S(=O)(=O)NC(=O)NC/C=C2\COCc3cnn(Cc4ccc(Cl)cc4Cl)c32)c1` [Compound #63, (Z)—N-((2-(1-(2,4-dichlorobenzyl)-1,4-dihydropyrano[4,3-c]pyrazol-7(6H)-ylidene)ethyl)carbamoyl)-3-methoxybenzenesulfonamide]: the IC50 in experiment [1] came out at 121 nM. The compound further registered a Ki in experiment [2] of 44 nM.
For the compound `O=C(NC/C(F)=C1\CCCc2cnn(-c3ccc(C(F)(F)F)cc3)c21)NS(=O)(=O)c1ccc(Cl)s1` [Compound #124, (Z)-5-chloro-N-((2-fluoro-2-(1-(4-(trifluoromethyl)phenyl)-1,4,5,6-tetrahydro-7H-indazol-7-ylidene)ethyl)carbamoyl)thiophene-2-sulfonamide], the half-maximal inhibitory concentration (IC50) in experiment [1] stood at 798 nM. For the same compound, in experiment [2], the Ki turned out to be 100 nM.
Regarding `O=C(NC/C(F)=C1/CCCc2onc(Cc3ccc(Cl)cc3Cl)c21)NS(=O)(=O)c1cc(Cl)c(Cl)s1` [Compound #128, (E)-4,5-dichloro-N-((2-(3-(2,4-dichlorobenzyl)-6,7-dihydrobenzo[d]isoxazol-4(5H)-ylidene)-2-fluoroethyl)carbamoyl)thiophene-2-sulfonamide], in experiment [1], the half-maximal inhibitory concentration (IC50) stood at 8400 nM. The affinity in experiment [2], expressed as Ki, was 532 nM.
Take `COc1ccccc1S(=O)(=O)NC(=O)NC/C=C1\COCc2cnn(Cc3ccc(Cl)cc3Cl)c21` [Compound #58, (Z)—N-((2-(1-(2,4-dichlorobenzyl)-1,4-dihydropyrano[4,3-c]pyrazol-7(6H)-ylidene)ethyl)carbamoyl)-2-methoxybenzenesulfonamide]: the half-inhibitory concentration (IC50) in experiment [1] is 1300 nM. For the same compound, the inhibition constant Ki in experiment [2] was 110 nM.
On to `O=C(NC/C(F)=C1\COCc2cnn(-c3ccc(C(F)(F)F)cc3)c21)NS(=O)(=O)c1cc(Cl)c(Cl)s1` [Compound #119, (E)-4,5-dichloro-N-((2-fluoro-2-(1-(4-(trifluoromethyl)phenyl)-1,4-dihydropyrano[4,3-c]pyrazol-7(6H)-ylidene)ethyl)carbamoyl)thiophene-2-sulfonamide], for which the IC50 in experiment [1] turned out to be 230 nM. In experiment [2], this compound gave a Ki of 43 nM.
Turning to `Cc1ncc(S(=O)(=O)NC(=O)NC/C=C2\CCCc3cnn(Cc4ccc(Cl)cc4Cl)c32)s1` [Compound #139, (E)-N-((2-(1-(2,4-dichlorobenzyl)-1,4,5,6-tetrahydro-7H-indazol-7-ylidene)ethyl)carbamoyl)-2-methylthiazole-5-sulfonamide], in experiment [1], the 50% inhibitory concentration (IC50) amounted to 9 nM. The compound further returned a Ki in experiment [2] of 7 nM.
Turning to `O=C(NC/C=C1\CCCc2cnn(Cc3ccc(Cl)cc3Cl)c21)NS(=O)(=O)c1ccc2c(c1)OCCO2` [Compound #16, (E)-N-((2-(1-(2,4-dichlorobenzyl)-1,4,5,6-tetrahydro-7H-indazol-7-ylidene)ethyl)carbamoyl)-2,3-dihydrobenzo[b][1,4]dioxine-6-sulfonamide], the 50% inhibitory concentration (IC50) in experiment [1] was found to be 27 nM. In experiment [2], this compound displayed a Ki of 9 nM.
As to `O=C(CC/C(F)=C1\COCc2cnn(Cc3ccc(Cl)cc3Cl)c21)NS(=O)(=O)c1cc(Cl)c(Cl)s1` [Compound #61, (E)-4-(1-(2,4-dichlorobenzyl)-1,4-dihydropyrano[4,3-c]pyrazol-7(6H)-ylidene)-N-((4,5-dichlorothiophen-2-yl)sulfonyl)-4-fluorobutanamide], the half-inhibitory concentration (IC50) in experiment [1] came to 17 nM. In addition, in experiment [2], the inhibition constant Ki was found to be 7 nM.
Regarding `O=C(NC/C(F)=C1\CCCc2cnn(Cc3ccc(Cl)cc3Cl)c21)NS(=O)(=O)c1cc2ccccc2o1` [Compound #111, (Z)—N-((2-(1-(2,4-dichlorobenzyl)-1,4,5,6-tetrahydro-7H-indazol-7-ylidene)-2-fluoroethyl)carbamoyl)benzofuran-2-sulfonamide], in experiment [1], the IC50 is 399 nM. In experiment [2], this compound had an inhibition constant Ki of 59 nM.
